Tests used:
[1] = system: Mv1Lu cells; assay: Abnormal cytokinesis: cells having two or more nuclei, tetracycline-inducible expression, Giemsa staining; assay type: cell-based, mink; conditions: Mv1Lu, 72 hours
Protocol: (§1) MvlLu cells carrying vector alone, wild-type FLAG-AIM-1 (WT) or FLAG-AIM-1 (K-R) were grown in the presence or absence of doxycycline (tetracycline analog) for 24 hours and then subjected to western blot with anti-FLAG antibody (FIG. 4A). […] In addition, the size of these cells was much larger than normal cells (FIGS. 4Bf and 5D). In these abnormal cells, however, spindle. functions including chromosome disjunction and late anaphase spindle elongation as well as nuclear division appeared unaffected (data not shown). This was further confirmed by flow cytometry (FACS) (FIG. 4C). […] Namely, apocytes appeared because karyokinesis advances but cytokinesis is inhibited.
Then, asynchronous cells transfected with vector alone (a, d), FLAG-AIM-1 (WT) (b, e) or FLAG-AIM-1 (K-R) (c, f) were grown with (a-c) or without (d-f) DOX for 72 hours and stained with Giemsa's solution. Results are shown in FIG. 4B, wherein upper panels are called as a, b and c from left to right, and lower panels are called as d, e and f from left to right.
(2) Abnormal Cytokinesis in Cells Expressing AIM-1 (K-R) Plasmid FLAG-AIM-1 (WT), FLAG-AIM-1 (K-R) or a control plasmid pEF/hygI was cotransfected with a reporter construct RSV-β-galactosidase at a ratio of 10:1 into NRK-49F cells and human diploid fibroblast KD cells (a kind gift of late Dr. Takeo Kakunaga) by Lipofectin method. […]

[2] = system: Mv1Lu cells; assay: Growth for 2 weeks with or without DOX, Giemsa staining; assay type: cell-based, mink; conditions: grown 2 weeks with or without doxycycline
Protocol: The nuclei of these AIM-1 (K-R)-expressing cells divided 3 to 4 times during 4 to 5 days, resulting in more than 10 nuclei per cell (FIG. 5D).
Mv1Lu cells transfected with FLAG-AIM-1 (WT) or FLAG-AIM-1 (K-R) were grown with or without DOX for 2 weeks and stained with Giemsa's solution.

[3] = system: human diploid fibroblast KD cells; assay: Abnormal cytokinesis: cells having two or more nuclei after transient transfection; assay type: cell-based; conditions: 72 hours after transfection
Description: (§2) To confirm the generality of this observation, AIM-1 (WT) and AIM-1 (K-R) plasmids were transiently expressed in NRK-49F cells and human diploid fibroblast KD cells and the results were compared with those obtained in a control transfected with vector alone. These constructs were transfected into cell-s with a reporter construct […] to prepare β-galactosidase-expressing plasmids for use as a positive internal control for transfection (Table 1).
(§3) (2) Abnormal Cytokinesis in Cells Expressing AIM-1 (K-R) Plasmid FLAG-AIM-1 (WT), FLAG-AIM-1 (K-R) or a control plasmid pEF/hygI was cotransfected with a reporter construct RSV-β-galactosidase at a ratio of 10:1 into NRK-49F cells and human diploid fibroblast KD cells (a kind gift of late Dr. Takeo Kakunaga) by Lipofectin method. After 24 hours, 1×10^3 cells were seeded per 60 mm dish, and 72 hours after transfection, cells were fixed in 1.25% glutaraldehyde/PBS and stained by a method described in literature (Shu et al., J.C.S. 108:2955-62, 1995) to observe expression of β-galactosidase. MvlLu cells were also tested under the conditions described in (1) B above.
(§4) 1. The figures in the table mean the percentage of cells having two or more nuclei to β-galactosidase positive cells for NRK-49F cells and KD cells or the percentage of cells having two or more nuclei to the total number of cells for MvlLu cells. […]

[4] = system: NRK-49F cells; assay: as above; assay type: cell-based, rat; conditions: 72 hours after transfection
Description: as §2, §3, §4

[5] = system: Mv1Lu cells; assay: FACS analysis of DNA content (propidium iodide); assay type: cell-based, mink; conditions: 72 hour-induction
Protocol: as §1
Cell samples were harvested and fixed with ethanol, stained with propidium iodide for FACS analysis.

AIM-1 (WT): wild-type rat AIM-1 protein kinase labeled with FLAG at the N-terminus, expressed from plasmid pUHD10-3 or pEF/hygI
percentage of cells having two or more nuclei to the total number of cells ([1]; DOX(+) (not induced)): 0.9%
percentage of cells having two or more nuclei to the total number of cells ([1]; DOX(−) (induced)): 2.8%
effect on growth potency (mitotic inhibition) [2]: not
percentage of cells having two or more nuclei to β-galactosidase positive cells [3]: 4.8%
percentage of cells having two or more nuclei to β-galactosidase positive cells [4]: 7.8%
cell population with 4N or 8N DNA / cell cycle pattern (FACS) [5]: normal cell cycle pattern

Reference: patent publication US6759212B1, “Cell cycle-regulating proteins” (Chugai Seiyaku Kabushiki Kaisha, priority 1997, dated 2004)
